The record followed here is patent US20230093099A1, “COMPOUNDS AND METHODS OF TREATING CANCERS” (CULLGEN (SHANGHAI), INC., priority 2019, published 2023).

The experiment has as its system RS4;11 cells. In words: Cell viability assay (CellTiter-Glo) in RS4;11 cells. Format: cell-based. As to conditions: Homo sapiens, 72 h; RS4;11 cells; cell viability, 3 days, CellTiter-Glo; read-out: IC50. In outline: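 Three-day compound treatment of RS4;11 ALL cells (5000/well, 3-fold dilution series of 8 or 12 points), with IC50 from a nonlinear least-squares fit to CellTiter-Glo viability data.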
Consider `Cc1ncsc1-c1ccc(CNC(=O)[C@@H]2C[C@@H](O)CN2C(=O)[C@@H](NC(=O)CCCCCCCNC(=O)CN2CCC(n3cc(-c4cnc5cccc(-c6cc(F)c(CN7CCOCC7)c(F)c6)c5n4)cn3)CC2)C(C)(C)C)cc1` [JA-156, (2S,4R)-1-((S)-2-(8-(2-(4-(4-(8-(3,5-Difluoro-4-(morpholinomethyl)phenyl)quinoxalin-2-yl)-1H-pyrazol-1-yl)piperidin-1-yl)acetamido)octanamido)-3,3-dimethylbutanoyl)-4-hydroxy-N-(4-(4-methylthiazol-5-yl)benzyl)pyrrolidine-2-carboxamide], for which the IC50 worked out at 3.66 µM.

Regarding `Cc1ncsc1-c1ccc(CNC(=O)[C@@H]2C[C@@H](O)CN2C(=O)[C@@H](NC(=O)COCCOCCOCCNC(=O)CN2CCC(n3cc(-c4cnc5cccc(-c6cc(F)c(CN7CCOCC7)c(F)c6)c5n4)cn3)CC2)C(C)(C)C)cc1` [JA-157, (2S,4R)-1-((S)-2-(tert-Butyl)-17-(4-(4-(8-(3,5-Difluoro-4-(morpholinomethyl)phenyl)quinoxalin-2-yl)-1H-pyrazol-1-yl)piperidin-1-yl)-4,16-dioxo-6,9,12-trioxa-3,15-diazaheptadecanoyl)-4-hydroxy-N-(4-(4-methylthiazol-5-yl)benzyl)pyrrolidine-2-carboxamide], the IC50 was greater than 10 µM.

`Cc1ncsc1-c1ccc(CNC(=O)[C@@H]2C[C@@H](O)CN2C(=O)[C@@H](NC(=O)CNC(=O)CN2CCC(n3cc(-c4cnc5cccc(-c6cc(F)c(CN7CCOCC7)c(F)c6)c5n4)cn3)CC2)C(C)(C)C)cc1` [JA-158, (2S,4R)-1-((S)-2-(2-(2-(4-(4-(8-(3,5-Difluoro-4-(morpholinomethyl)phenyl)quinoxalin-2-yl)-1H-pyrazol-1-yl)piperidin-1-yl)acetamido)acetamido)-3,3-dimethylbutanoyl)-4-hydroxy-N-(4-(4-methylthiazol-5-yl)benzyl)pyrrolidine-2-carboxamide]: the concentration for half-maximal inhibition (IC50) is greater than 10 µM.

`Cc1ncsc1-c1ccc(CNC(=O)[C@@H]2C[C@@H](O)CN2C(=O)[C@@H](NC(=O)CCOCCOCCOCCOCCOCCNC(=O)CN2CCC(n3cc(-c4cnc5cccc(-c6cc(F)c(CN7CCOCC7)c(F)c6)c5n4)cn3)CC2)C(C)(C)C)cc1` [JA-159, (2S,4R)-1-((S)-23-(tert-Butyl)-1-(4-(4-(8-(3,5-difluoro-4-(morpholinomethyl)phenyl)quinoxalin-2-yl)-1H-pyrazol-1-yl)piperidin-1-yl)-2,21-dioxo-6,9,12,15,18-pentaoxa-3,22-diazatetracosan-24-oyl)-4-hydroxy-N-(4-(4-methylthiazol-5-yl)benzyl)pyrrolidine-2-carboxamide]: the IC50 was greater than 10 µM.

For the compound `Cc1ncsc1-c1ccc(CNC(=O)[C@@H]2C[C@@H](O)CN2C(=O)[C@@H](NC(=O)CCOCCNC(=O)CN2CCC(n3cc(-c4cnc5cccc(-c6cc(F)c(CN7CCOCC7)c(F)c6)c5n4)cn3)CC2)C(C)(C)C)cc1` [JA-160, (2S,4R)-1-((S)-2-(3-(2-(2-(4-(4-(8-(3,5-Difluoro-4-(morpholinomethyl)phenyl)quinoxalin-2-yl)-1H-pyrazol-1-yl)piperidin-1-yl)acetamido)ethoxy)propanamido)-3,3-dimethylbutanoyl)-4-hydroxy-N-(4-(4-methylthiazol-5-yl)benzyl)pyrrolidine-2-carboxamide], the IC50 was greater than 10 µM.

Consider `Cc1ncsc1-c1ccc(CNC(=O)[C@@H]2C[C@@H](O)CN2C(=O)[C@@H](NC(=O)CCCCCCCCNC(=O)CN2CCC(n3cc(-c4cnc5cccc(-c6cc(F)c(CN7CCOCC7)c(F)c6)c5n4)cn3)CC2)C(C)(C)C)cc1` [JA-161, (2S,4R)-1-((S)-2-(9-(2-(4-(4-(8-(3,5-Difluoro-4-(morpholinomethyl)phenyl)quinoxalin-2-yl)-1H-pyrazol-1-yl)piperidin-1-yl)acetamido)nonanamido)-3,3-dimethylbutanoyl)-4-hydroxy-N-(4-(4-methylthiazol-5-yl)benzyl)pyrrolidine-2-carboxamide], for which the IC50 came to 2.37 µM.

`Cc1ncsc1-c1ccc(CNC(=O)[C@@H]2C[C@@H](O)CN2C(=O)[C@@H](NC(=O)CCOCCOCCNC(=O)CN2CCC(n3cc(-c4cnc5cccc(-c6cc(F)c(CN7CCOCC7)c(F)c6)c5n4)cn3)CC2)C(C)(C)C)cc1` [JA-162, (2S,4R)-1-((S)-14-(tert-Butyl)-1-(4-(4-(8-(3,5-difluoro-4-(morpholinomethyl)phenyl)quinoxalin-2-yl)-1H-pyrazol-1-yl)piperidin-1-yl)-2,12-dioxo-6,9-dioxa-3,13-diazapentadecan-15-oyl)-4-hydroxy-N-(4-(4-methylthiazol-5-yl)benzyl)pyrrolidine-2-carboxamide]: the IC50 was greater than 10 µM.

Turning to `Cc1ncsc1-c1ccc(CNC(=O)[C@@H]2C[C@@H](O)CN2C(=O)[C@@H](NC(=O)COCCOCCNC(=O)CN2CCC(n3cc(-c4cnc5cccc(-c6cc(F)c(CN7CCOCC7)c(F)c6)c5n4)cn3)CC2)C(C)(C)C)cc1` [JA-163, (2S,4R)-1-((S)-2-(tert-Butyl)-14-(4-(4-(8-(3,5-difluoro-4-(morpholinomethyl)phenyl)quinoxalin-2-yl)-1H-pyrazol-1-yl)piperidin-1-yl)-4,13-dioxo-6,9-dioxa-3,12-diazatetradecanoyl)-4-hydroxy-N-(4-(4-methylthiazol-5-yl)benzyl)pyrrolidine-2-carboxamide], the IC50 was greater than 10 µM.

Consider `Cc1ncsc1-c1ccc(CNC(=O)[C@@H]2C[C@@H](O)CN2C(=O)[C@@H](NC(=O)CCCCCNC(=O)CN2CCC(n3cc(-c4cnc5cccc(-c6cc(F)c(CN7CCOCC7)c(F)c6)c5n4)cn3)CC2)C(C)(C)C)cc1` [JA-164, (2S,4R)-1-((S)-2-(6-(2-(4-(4-(8-(3,5-Difluoro-4-(morpholinomethyl)phenyl)quinoxalin-2-yl)-1H-pyrazol-1-yl)piperidin-1-yl)acetamido)hexanamido)-3,3-dimethylbutanoyl)-4-hydroxy-N-(4-(4-methylthiazol-5-yl)benzyl)pyrrolidine-2-carboxamide], for which the IC50 is greater than 10 µM.

Consider `Cc1ncsc1-c1ccc(CNC(=O)[C@@H]2C[C@@H](O)CN2C(=O)[C@@H](NC(=O)CCCCCCNC(=O)CN2CCC(n3cc(-c4cnc5cccc(-c6cc(F)c(CN7CCOCC7)c(F)c6)c5n4)cn3)CC2)C(C)(C)C)cc1` [JA-165, (2S,4R)-1-((S)-2-(7-(2-(4-(4-(8-(3,5-Difluoro-4-(morpholinomethyl)phenyl)quinoxalin-2-yl)-1H-pyrazol-1-yl)piperidin-1-yl)acetamido)heptanamido)-3,3-dimethylbutanoyl)-4-hydroxy-N-(4-(4-methylthiazol-5-yl)benzyl)pyrrolidine-2-carboxamide], for which the IC50 is greater than 10 µM.

In the case of `Cc1ncsc1-c1ccc(CNC(=O)[C@@H]2C[C@@H](O)CN2C(=O)[C@@H](NC(=O)CCCCCCCCCNC(=O)CN2CCC(n3cc(-c4cnc5cccc(-c6cc(F)c(CN7CCOCC7)c(F)c6)c5n4)cn3)CC2)C(C)(C)C)cc1` [JA-166, (2S,4R)-1-((S)-2-(10-(2-(4-(4-(8-(3,5-Difluoro-4-(morpholinomethyl)phenyl)quinoxalin-2-yl)-1H-pyrazol-1-yl)piperidin-1-yl)acetamido)decanamido)-3,3-dimethylbutanoyl)-4-hydroxy-N-(4-(4-methylthiazol-5-yl)benzyl)pyrrolidine-2-carboxamide], the IC50 stood at 4.45 µM.

By IC50 is commonly meant the midpoint of a concentration-inhibition curve.
